Test results: patent publication US10941132B2, “Pyrazole derivatives” (HUA MEDICINE (SHANGHAI) Ltd., priority 2016, dated 2021)
Where two headings read alike, the source gives them in different places.

Target: T1, recombinant rat mGluR5 (Rattus norvegicus, UniProt P31424)
T1 construct: expressed in transfected cells
Assay: Functional calcium flux assay (FLIPR), antagonist evaluation against glutamate-evoked [Ca2+]i increase
Format: cell-based
Details: HEK293 cells stably expressing recombinant rat mGluR5, 15 min incubation of test compound, then submaximal glutamate
Experimental: Functional Calcium Clux Assay Methodology
For functional assays, HEK293 cells stably expressing recombinant rat mGluR5 were seeded in 384-well plates and dye loaded using Fluo-8. Cells were then washed to remove the un-incorporated dye. Antagonist evaluation was performed following a 15 min incubation of the test compound followed by the addition of submaximal concentration of glutamate. Intracellular calcium ([Ca^2+]i) measurements were performed using a fluorometric imaging plate reader (FLIPR, Molecular Devices). The glutamate-evoked increase in [Ca^2′]i in the presence of the test compounds was compared to the response to glutamate alone (the positive control). Antagonist inhibition curves were fitted with a 4-parameter logistic equation giving IC50 values, and Hill coefficients using an iterative nonlinear curve fitting algorithm.
The tables below provide IC50 data in this assay. In the activity column, A=IC50>1,000 and ≤5,000 nM; B=IC50>500 and ≤1,000 nM and C=IC50≤500 nM.

[1] = Table 1, read-out: IC50 value (FLIPR assay)
[2] = Table 2, read-out: IC50 (FLIPR assay)

T1 sequence (P31424 21-1203): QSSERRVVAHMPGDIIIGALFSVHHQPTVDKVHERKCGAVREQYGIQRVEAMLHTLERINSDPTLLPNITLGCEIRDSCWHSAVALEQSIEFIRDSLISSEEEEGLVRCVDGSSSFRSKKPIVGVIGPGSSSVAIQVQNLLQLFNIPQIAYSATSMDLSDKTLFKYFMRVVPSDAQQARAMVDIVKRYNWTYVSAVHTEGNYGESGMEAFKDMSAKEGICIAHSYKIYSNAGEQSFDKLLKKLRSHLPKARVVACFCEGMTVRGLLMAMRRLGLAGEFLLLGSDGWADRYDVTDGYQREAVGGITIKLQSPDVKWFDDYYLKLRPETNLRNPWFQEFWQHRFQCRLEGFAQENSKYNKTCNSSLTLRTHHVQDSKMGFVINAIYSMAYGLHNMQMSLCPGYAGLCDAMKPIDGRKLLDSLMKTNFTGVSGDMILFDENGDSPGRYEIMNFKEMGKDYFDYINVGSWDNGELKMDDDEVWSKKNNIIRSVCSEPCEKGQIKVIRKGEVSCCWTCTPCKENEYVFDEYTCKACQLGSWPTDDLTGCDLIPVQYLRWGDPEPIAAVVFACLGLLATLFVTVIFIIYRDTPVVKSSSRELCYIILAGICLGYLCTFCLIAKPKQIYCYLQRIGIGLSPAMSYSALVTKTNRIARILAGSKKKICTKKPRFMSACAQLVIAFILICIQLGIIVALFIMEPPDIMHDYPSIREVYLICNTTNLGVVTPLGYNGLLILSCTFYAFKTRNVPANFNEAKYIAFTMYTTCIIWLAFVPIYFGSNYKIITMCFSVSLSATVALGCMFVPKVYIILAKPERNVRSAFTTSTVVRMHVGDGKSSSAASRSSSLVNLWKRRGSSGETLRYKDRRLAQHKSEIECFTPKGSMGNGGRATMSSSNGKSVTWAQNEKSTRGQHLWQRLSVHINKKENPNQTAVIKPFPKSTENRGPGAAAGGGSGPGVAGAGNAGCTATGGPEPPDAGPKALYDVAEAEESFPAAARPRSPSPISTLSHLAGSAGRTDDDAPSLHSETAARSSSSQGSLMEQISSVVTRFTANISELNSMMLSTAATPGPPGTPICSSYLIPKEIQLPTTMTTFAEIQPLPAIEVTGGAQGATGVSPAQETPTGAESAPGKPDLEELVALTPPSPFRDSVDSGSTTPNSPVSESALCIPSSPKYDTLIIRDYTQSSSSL

Row | IC50 [1] [nM] | IC50 [2] [nM] | Structure (SMILES)
1 | ≤ 500 | – | Cc1nn(-c2ccc(F)cn2)c(C)c1C#Cc1ccccn1 [Compound 25, 2-(3,5-dimethyl-4-(pyridin-2-ylethynyl)-H-pyrazol-1-yl)-5-fluoropyridine]
2 | ≤ 500 | – | COc1c(C#Cc2ccccn2)cnn1-c1ccc(F)cn1 [Compound 62, 5-fluoro-2-(5-methoxy-4-(pyridin-2-ylethynyl)-1H-pyrazol-1-yl)]
3 | ≤ 500 | – | Fc1ccc(-n2cc(C#Cc3cccnc3)cn2)cc1 [Compound 83, 3-((1-(4-fluorophenyl)-1H-pyrazol-4-yl)ethynyl)pyridine]
4 | ≤ 500 | – | Fc1ccc(-n2cc(C#Cc3ccccn3)cn2)cn1 [Compound 23]
5 | ≤ 500 | – | N#Cc1cc(F)cc(-n2cc(C#Cc3ccccn3)c(Cl)n2)c1 [Compound 38, 3-(3-chloro-4-(pyridin-2-ylethynyl)-1H-pyrazol-1-yl)-5-fluorobenzonitrile]
6 | – | ≤ 500 | Cc1cc(C#Cc2ccccn2)nn1-c1cc(F)cc(C#N)c1 [Compound 97, 3-fluoro-5-(5-methyl-3-(pyridin-2-ylethynyl)-1H-pyrazol-1-yl) benzonitrile]
7 | – | 1000 to 5000 | Cc1cc(C#Cc2ncccn2)nn1-c1ccc(F)cc1 [Compound 128, 2-((1-(4-fluorophenyl)-5-methyl-1H-pyrazol-3-yl)ethynyl)]
8 | 500 to 1000 | – | FC(F)(F)Oc1ccc(-n2cc(C#Cc3ccncc3)cn2)cc1 [Compound 94, 4-((1-(4-(trifluoromethoxy)phenyl)-1H-pyrazol-4-yl)ethynyl)pyridine]
9 | ≤ 500 | – | N#Cc1cc(F)cc(-n2cc(C#Cc3ncccn3)c(Cl)n2)c1 [Compound 39, 3-(3-chloro-4-(pyrimidin-2-ylethynyl)-1H-pyrazol-1-yl)-5-fluorobenzonitrile]
10 | ≤ 500 | – | COc1c(C#Cc2ccccn2)cnn1-c1ccc(F)cc1 [Compound 51, 2-((1-(4-fluorophenyl)-5-methoxy-1H-pyrazol-4-yl)ethynyl)pyridine]
11 | – | 1000 to 5000 | FC(F)(F)Oc1ccc(-n2ccc(C#Cc3cnccn3)n2)cc1 [Compound 125, 2-((1-(4-(trifluoromethoxy)phenyl)-1H-pyrazol-3-yl)ethynyl) pyrazine]
12 | ≤ 500 | – | FC(F)(F)Oc1ccc(-n2cc(C#Cc3cccc(Cl)c3)cn2)cc1 [Compound 92, 4-((3-chlorophenyl)ethynyl)-1-(4-(trifluoromethoxy)phenyl)-1H-pyrazole]
13 | ≤ 500 | – | N#Cc1cc(F)cc(-n2cc(C#Cc3ccccn3)c(C3CC3)n2)c1 [Compound 54, 3-(3-cyclopropyl-4-(pyridin-2-ylethynyl)-1H-pyrazol-1-yl)-5-fluorobenzonitrile]
14 | – | 1000 to 5000 | Fc1ccc(-n2ccc(C#Cc3cnccn3)n2)cc1 [Compound 119, 2-((1-(4-fluorophenyl)-H-pyrazol-3-yl)ethynyl)pyrazine]
15 | 500 to 1000 | – | CS(=O)(=O)c1ccc(-n2cc(C#Cc3ccccn3)cn2)cc1 [Compound 46, 2-((1-(4-(methylsulfonyl)phenyl)-1H-pyrazol-4-yl)ethynyl)pyridine]
16 | – | 500 to 1000 | Fc1ccc(-n2cc(Cl)c(C#Cc3ccccn3)n2)nc1 [Compound 69, 2-(4-chloro-3-(pyridin-2-ylethynyl)-1H-pyrazol-1-yl)-5-fluoropyridine]
17 | ≤ 500 | – | N#Cc1cc(F)cc(-n2cc(C#Cc3ccccn3)c(OC(F)F)n2)c1 [Compound 47, 3-(3-(difluoromethoxy)-4-(pyridin-2-ylethynyl)-1H-pyrazol-1-yl)-5-fluorobenzonitrile]
18 | – | 1000 to 5000 | Cc1cc(C#Cc2ccnc(Cl)c2)nn1-c1ccc(OC(F)(F)F)cc1 [Compound 135, 2-chloro-4-((5-methyl-1-(4-(trifluoromethoxy)phenyl)-1H-pyrazol-3-yl)ethynyl)pyridine]
19 | – | 500 to 1000 | Fc1ccc(-n2ccc(C#Cc3ncccn3)n2)cc1 [Compound 117, 2-((1-(4-fluorophenyl)-1H-pyrazol-3-yl)ethynyl)pyrimidine]

Row | IC50 [1] [nM] | IC50 [2] [nM] | Structure (SMILES)
20 | – | ≤ 500 | Cc1cc(C#Cc2cccc(Cl)c2)nn1-c1cc(F)cc(C#N)c1 [Compound 99, 3-(3-((3-chlorophenyl)ethynyl)-5-methyl-1H-pyrazol-1-yl)-5-fluorobenzonitrile]
21 | ≤ 500 | – | Cc1nn(-c2ccc(OC(F)(F)F)cc2)c(C)c1C#Cc1ncccn1 [Compound 14, 2-((3,5-dimethyl-1-(4-(trifluoromethoxy)phenyl)-1H-pyrazol-4-yl)ethynyl) pyrimidine]
22 | – | ≤ 500 | C(#Cc1ccn(-c2ccccn2)n1)c1ccccn1 [Compound 71, 2-((1-(pyridin-2-yl)-1H-pyrazol-3-yl)ethynyl)pyridine]
23 | – | ≤ 500 | Cc1cc(C#Cc2ccccn2)nn1-c1ccc(OC(F)(F)F)cc1 [Compound 136, 2-((5-methyl-1-(4-(trifluoromethoxy)phenyl)-1H-pyrazol-3-yl)ethynyl)pyridine]
24 | ≤ 500 | – | COCCOc1nn(-c2cc(F)cc(C#N)c2)cc1C#Cc1ccccn1 [Compound 32, 3-fluoro-5-(3-(2-methoxyethoxy)-4-(pyridin-2-ylethynyl)-1H-pyrazol-1-yl)benzonitrile]
25 | ≤ 500 | – | COc1nn(-c2ccc(F)cc2)c(C)c1C#Cc1ccccn1 [Compound 8, 2-((1-(4-fluorophenyl)-3-methoxy-5-methyl-1H-pyrazol-4-yl)ethynyl)pyridine]
26 | ≤ 500 | – | Fc1ccc(-n2cc(C#Cc3ncccn3)c(Cl)n2)cc1 [Compound 43, 2-((3-chloro-1-(4-fluorophenyl)-1H-pyrazol-4-yl)ethynyl)pyrimidine]
27 | ≤ 500 | – | Fc1ccc(-n2ncc(C#Cc3ncccn3)c2Cl)cc1 [Compound 17]
28 | ≤ 500 | – | Fc1ccc(-n2cc(C#Cc3ncccn3)cn2)cn1 [Compound 34, 2-((1-(6-fluoropyridin-3-yl)-1H-pyrazol-4-yl)ethynyl)pyrimidine]
29 | ≤ 500 | – | Fc1ccc(-n2cc(C#Cc3ccccn3)cn2)cc1 [Compound 82, 2-((1-(4-fluorophenyl)-1H-pyrazol-4-yl)ethynyl)pyridine]
30 | ≤ 500 | – | Fc1ccc(-n2cc(C#Cc3cccc(Cl)c3)cn2)cc1 [Compound 84, 4-((3-chlorophenyl)ethynyl)-1-(4-fluorophenyl)-1H-pyrazole]
31 | – | ≤ 500 | N#Cc1cc(F)cc(-n2ccc(C#Cc3cccc(Cl)c3)n2)c1 [Compound 107, 3-(3-((3-chlorophenyl)ethynyl)-1H-pyrazol-1-yl)-5-fluorobenzonitrile]
32 | ≤ 500 | – | N#Cc1cc(F)cc(-n2cc(C#Cc3ncccn3)c(C3CC3)n2)c1 [Compound 55, 3-(3-cyclopropyl-4-(pyrimidin-2-ylethynyl)-1H-pyrazol-1-yl)-5-fluorobenzonitrile]
33 | ≤ 500 | – | FC(F)(F)Oc1ccc(-n2cc(C#Cc3ccccn3)cn2)cc1 [Compound 90, 2-((1-(4-(trifluoromethoxy)phenyl)-1H-pyrazol-4-yl)ethynyl)pyridine]
34 | ≤ 500 | – | Fc1ccc(-n2cc(C#Cc3ccccn3)c(Cl)n2)cc1 [Compound 42, 2-((3-chloro-1-(4-fluorophenyl)-1H-pyrazol-4-yl)ethynyl)pyridine]
35 | – | 1000 to 5000 | N#Cc1cc(F)cc(-n2ccc(C#Cc3cccnc3)n2)c1 [Compound 106, 3-fluoro-5-(3-(pyridin-3-ylethynyl)-1H-pyrazol-1-yl)benzonitrile]
36 | – | ≤ 500 | Cc1cc(C#Cc2ccnc(Cl)c2)nn1-c1ccc(F)cc1 [Compound 131, 2-chloro-4-((1-(4-fluorophenyl)-5-methyl-1H-pyrazol-3-yl)ethynyl) pyridine]
37 | ≤ 500 | – | Fc1ccc(-n2ncc(C#Cc3ccccn3)c2Cl)cc1 [Compound 20]
